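Protocol summary: plate cells (96-well), add compound at 5 concentrations, incubate 48 h, interpolate endpoints linearly. GI50 marks 50% less growth. TGI: total growth inhibition.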
Key:
Assay in all cases: DTP human tumour cell line panel, 48 h
SF-268 CNS = tested on: SF-268 CNS
PC-3 prostate = tested on: PC-3 prostate
CCRF-CEM leukemia = tested on: CCRF-CEM leukemia
HCT-15 colon = tested on: HCT-15 colon
HL-60(TB) leukemia = tested on: HL-60(TB) leukemia
TK-10 renal = tested on: TK-10 renal
KM12 colon = tested on: KM12 colon
SNB-19 CNS = tested on: SNB-19 CNS
RXF 393 renal = tested on: RXF 393 renal
MOLT-4 leukemia = tested on: MOLT-4 leukemia
NCI-H23 lung = tested on: NCI-H23 lung
HS 578T breast = tested on: HS 578T breast
SNB-75 CNS = tested on: SNB-75 CNS
RPMI-8226 leukemia = tested on: RPMI-8226 leukemia
SK-MEL-5 melanoma = tested on: SK-MEL-5 melanoma
SF-539 CNS = tested on: SF-539 CNS
MALME-3M melanoma = tested on: MALME-3M melanoma
IGROV1 ovarian = tested on: IGROV1 ovarian
OVCAR-8 ovarian = tested on: OVCAR-8 ovarian
MDA-MB-231 breast = tested on: MDA-MB-231 breast
NCI-H522 lung = tested on: NCI-H522 lung
OVCAR-4 ovarian = tested on: OVCAR-4 ovarian
UO-31 renal = tested on: UO-31 renal
NCI-H460 lung = tested on: NCI-H460 lung
HCC-2998 colon = tested on: HCC-2998 colon
UACC-62 melanoma = tested on: UACC-62 melanoma
ACHN renal = tested on: ACHN renal
MDA-MB-435 = tested on: MDA-MB-435
EKVX NSCLC = tested on: EKVX NSCLC
NCI/ADR-RES ovarian = tested on: NCI/ADR-RES ovarian
OVCAR-3 ovarian = tested on: OVCAR-3 ovarian
786-0 renal = tested on: 786-0 renal
T-47D breast = tested on: T-47D breast
LOX IMVI melanoma = tested on: LOX IMVI melanoma
UACC-257 melanoma = tested on: UACC-257 melanoma
DU-145 prostate = tested on: DU-145 prostate
U251 CNS = tested on: U251 CNS
HOP-92 NSCLC = tested on: HOP-92 NSCLC
HOP-62 NSCLC = tested on: HOP-62 NSCLC
A498 renal = tested on: A498 renal
SF-295 CNS = tested on: SF-295 CNS
HT29 colon = tested on: HT29 colon
SR leukemia = tested on: SR leukemia
SK-MEL-28 melanoma = tested on: SK-MEL-28 melanoma
SK-OV-3 ovarian = tested on: SK-OV-3 ovarian
SN12C renal = tested on: SN12C renal
NCI-H226 lung = tested on: NCI-H226 lung
K-562 leukemia = tested on: K-562 leukemia
A549 NSCLC = tested on: A549 NSCLC
COLO 205 colon = tested on: COLO 205 colon
BT-549 breast = tested on: BT-549 breast
SW-620 colon = tested on: SW-620 colon
HCT-116 colon = tested on: HCT-116 colon
OVCAR-5 ovarian = tested on: OVCAR-5 ovarian
SK-MEL-2 melanoma = tested on: SK-MEL-2 melanoma
MCF7 breast = tested on: MCF7 breast
M14 melanoma = tested on: M14 melanoma

**Q.** Which results are given for C=C1C(=O)O[C@H]2[C@H]1CC/C(COC(=O)N1CCC[C@H]1C(=O)Nc1ccc(OC)c(C(N)=O)c1O)=C\CC[C@@]1(C)O[C@@H]21?
**A.** GI50 (SF-268 CNS): 5.63 µM; TGI (SF-268 CNS): 24.7 µM; GI50 (PC-3 prostate): 4.95 µM; TGI (PC-3 prostate): 18.9 µM; GI50 (CCRF-CEM leukemia): 1.65 µM; TGI (CCRF-CEM leukemia): 5.95 µM; GI50 (HCT-15 colon): 4.34 µM; TGI (HCT-15 colon): 17.2 µM; GI50 (HL-60(TB) leukemia): 1.59 µM; TGI (HL-60(TB) leukemia): 4.83 µM; GI50 (TK-10 renal): 1.92 µM; TGI (TK-10 renal): 7.16 µM; GI50 (KM12 colon): 5.53 µM; TGI (KM12 colon): 20 µM; GI50 (SNB-19 CNS): 7.62 µM; TGI (SNB-19 CNS): 23.9 µM; GI50 (RXF 393 renal): 1.2 µM; TGI (RXF 393 renal): 2.79 µM; GI50 (MOLT-4 leukemia): 2.24 µM; TGI (MOLT-4 leukemia): 5.63 µM; GI50 (NCI-H23 lung): 5.44 µM; TGI (NCI-H23 lung): 22.6 µM; GI50 (HS 578T breast): 17.9 µM; TGI (HS 578T breast): > 100 µM; GI50 (SNB-75 CNS): 2.67 µM; TGI (SNB-75 CNS): 14.9 µM; GI50 (RPMI-8226 leukemia): 1.93 µM; TGI (RPMI-8226 leukemia): 4.87 µM; GI50 (SK-MEL-5 melanoma): 3.48 µM; TGI (SK-MEL-5 melanoma): 14.2 µM; GI50 (SF-539 CNS): 2.07 µM; TGI (SF-539 CNS): 5.76 µM; GI50 (MALME-3M melanoma): 2.42 µM; TGI (MALME-3M melanoma): 6.54 µM; GI50 (IGROV1 ovarian): 2.82 µM; TGI (IGROV1 ovarian): 9.13 µM; GI50 (OVCAR-8 ovarian): 4.73 µM; TGI (OVCAR-8 ovarian): 26 µM; GI50 (MDA-MB-231 breast): 2.68 µM; TGI (MDA-MB-231 breast): 10.1 µM; GI50 (NCI-H522 lung): 1.68 µM; TGI (NCI-H522 lung): 4.07 µM; GI50 (OVCAR-4 ovarian): 2.88 µM; TGI (OVCAR-4 ovarian): 12.9 µM; GI50 (UO-31 renal): 2.11 µM; TGI (UO-31 renal): 8.97 µM; GI50 (NCI-H460 lung): 11.4 µM; TGI (NCI-H460 lung): 29 µM; GI50 (HCC-2998 colon): 8.61 µM; TGI (HCC-2998 colon): 23.3 µM; GI50 (UACC-62 melanoma): 2.39 µM; TGI (UACC-62 melanoma): 7.66 µM; GI50 (ACHN renal): 2.9 µM; TGI (ACHN renal): 10.9 µM; GI50 (MDA-MB-435): 3.8 µM; TGI (MDA-MB-435): 15.9 µM; GI50 (EKVX NSCLC): 4 µM; TGI (EKVX NSCLC): 32.9 µM; GI50 (NCI/ADR-RES ovarian): 61 µM; TGI (NCI/ADR-RES ovarian): > 100 µM; GI50 (OVCAR-3 ovarian): 1.86 µM; TGI (OVCAR-3 ovarian): 4.48 µM; GI50 (786-0 renal): 2.27 µM; TGI (786-0 renal): 6.56 µM; GI50 (T-47D breast): 2.42 µM; TGI (T-47D breast): 6.7 µM; GI50 (LOX IMVI melanoma): 1.39 µM; TGI (LOX IMVI melanoma): 3.23 µM; GI50 (UACC-257 melanoma): 2.88 µM; TGI (UACC-257 melanoma): 10.9 µM; GI50 (DU-145 prostate): 3.95 µM; TGI (DU-145 prostate): 14.5 µM; GI50 (U251 CNS): 6.76 µM; TGI (U251 CNS): 20.9 µM; GI50 (HOP-92 NSCLC): 1.23 µM; TGI (HOP-92 NSCLC): 3.32 µM; GI50 (HOP-62 NSCLC): 12.8 µM; TGI (HOP-62 NSCLC): 30.2 µM; GI50 (A498 renal): 9.17 µM; TGI (A498 renal): 22.6 µM; GI50 (SF-295 CNS): 12.1 µM; TGI (SF-295 CNS): 27.4 µM; GI50 (HT29 colon): 3.24 µM; TGI (HT29 colon): 11.1 µM; GI50 (SR leukemia): 1.59 µM; TGI (SR leukemia): 12.7 µM; GI50 (SK-MEL-28 melanoma): 2.87 µM; TGI (SK-MEL-28 melanoma): 10.2 µM; GI50 (SK-OV-3 ovarian): 20.9 µM; TGI (SK-OV-3 ovarian): 65.6 µM; GI50 (SN12C renal): 2.96 µM; TGI (SN12C renal): 10.3 µM; GI50 (NCI-H226 lung): 2.24 µM; TGI (NCI-H226 lung): 7.12 µM; GI50 (K-562 leukemia): 2.43 µM; TGI (K-562 leukemia): 10.2 µM; GI50 (A549 NSCLC): 14.7 µM; TGI (A549 NSCLC): 35.1 µM; GI50 (COLO 205 colon): 1.6 µM; TGI (COLO 205 colon): 3.28 µM; GI50 (BT-549 breast): 1.62 µM; TGI (BT-549 breast): 5.12 µM; GI50 (SW-620 colon): 1.64 µM; TGI (SW-620 colon): 4.01 µM; GI50 (HCT-116 colon): 1.33 µM; TGI (HCT-116 colon): 3.06 µM; GI50 (OVCAR-5 ovarian): 4.41 µM; TGI (OVCAR-5 ovarian): 18.2 µM; GI50 (SK-MEL-2 melanoma): 6.58 µM; TGI (SK-MEL-2 melanoma): 34.4 µM; GI50 (MCF7 breast): 2.38 µM; TGI (MCF7 breast): 9.55 µM; GI50 (M14 melanoma): 1.89 µM; TGI (M14 melanoma): 4.19 µM

Reference: PubChem BioAssay (NCI)
